Read-outs that look alike come from different tables or passages of the source. Ends that are not written are not given here.

What all share (assay): FP displacement (competition) of FITC-15 AA CRIPT by library peptide, IC50 and Ki
One assay deals with PSG G322A G335A (PSD-95). The settings on record: for IC50: read-out: IC50 (µM), PSG G322A G335A.
In another assay the target is PSG F325A (PSD-95). Particulars: FP displacement of FITC-15 AA CRIPT probe by PSD library peptide, protein PSG F325A.
The target in another assay is PSG G335A (PSD-95). Particulars: for IC50: read-out: IC50 (µM), PSG G335A; for Ki: read-out: Ki (µM), PSG G335A.
Another assay addresses PSG (PSD-95). The settings on record: for IC50: read-out: IC50 (µM), PSG.
A further assay addresses PSG G322A (PSD-95). The settings on record: for IC50: read-out: IC50 (µM), PSG G322A; for Ki: read-out: Ki (µM), PSG G322A.
In the next assay the target is PDZ3 (PSD-95) (Homo sapiens, UniProt P78352).
PDZ3 (PSD-95), sequence (P78352 313-393 limits assumed): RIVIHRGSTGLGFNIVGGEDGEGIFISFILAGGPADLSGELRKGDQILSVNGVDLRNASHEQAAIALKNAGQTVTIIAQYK
[1] abbreviates: FP displacement of FITC-15 AA CRIPT probe by PSD library peptide, protein PSG G322A G335A.
Where [2] appears, read: read-out: Ki (µM), PSG G322A G335A, FP displacement of FITC-15 AA CRIPT probe by PSD library peptide, protein PSG G322A G335A.
Where [3] appears, read: FP displacement of FITC-15 AA CRIPT probe by PSD library peptide, protein PSG G335A.
Where [4] appears, read: FP displacement of 5 nM FITC-15 AA CRIPT by non-labeled acetylated peptide, room temperature, Ki from IC50, technical triplicates, PSG.
[5] abbreviates: FP displacement of FITC-15 AA CRIPT probe by PSD library peptide, protein PSG (wild type).
The mark [6] stands for this setting: read-out: Ki (µM), PSG, FP displacement of FITC-15 AA CRIPT probe by PSD library peptide, protein PSG (wild type).
[7] abbreviates: FP displacement of FITC-15 AA CRIPT probe by PSD library peptide, protein PSG G322A.
Setting [8] is: Ki (µM), PDZ3, FP displacement of FITC-15 AA CRIPT probe by PSD library peptide, protein PDZ3.
The mark [9] stands for this setting: Ki, FP displacement of 5 nM FITC-15 AA CRIPT by non-labeled acetylated peptide, room temperature, Ki from IC50, technical triplicates, PDZ3.
Where [10] appears, read: FP displacement of FITC-15 AA CRIPT probe by acetylated PSD library peptide (P-13 to P0 plus extra N-terminal Y).
[11] abbreviates: read-out: Ki (µM), PSG G322A G335A, FP displacement of FITC-15 AA CRIPT probe by acetylated PSD library peptide.
Setting [12] is: Ki (µM), PDZ3, FP displacement of FITC-15 AA CRIPT probe by acetylated PSD library peptide.
[13] abbreviates: FP displacement of FITC-15 AA CRIPT probe by acetylated PSD library peptide.
[14] abbreviates: read-out: Ki (µM), PSG, FP displacement of FITC-15 AA CRIPT probe by acetylated PSD library peptide.
Setting [15] is: FP displacement of FITC-15 AA CRIPT probe by library peptide.

Regarding `CC[C@H](C)[C@H](NC(=O)[C@H](CCCCN)NC(=O)[C@@H]1CCCN1C(=O)[C@H](CC(C)C)NC(=O)[C@H](CCCNC(=N)N)NC(=O)[C@H](Cc1c[nH]cn1)NC(=O)[C@H](CO)NC(=O)CNC(=O)[C@H](CC(=O)O)NC(=O)[C@H](Cc1ccc(O)cc1)NC(C)=O)C(=O)N[C@@H](CCCCN)C(=O)N[C@@H](CCC(=O)O)C(=O)N[C@H](C(=O)N[C@H](C(=O)N[C@H](C(=O)O)C(C)C)[C@@H](C)O)[C@@H](C)O` [FRPD4], the half-inhibitory concentration (IC50) (commonly the concentration that gives 50% inhibition) worked out at 2.47 µM on PSG G322A G335A (PSD-95) (setting [1]); 18 µM on PSG F325A (PSD-95) (read-out: IC50 (µM), PSG F325A); 2.55 µM on PSG G335A (PSD-95) (setting [3]); 6 µM at PSG (PSD-95) (setting [5]); 3.4 µM on PSG G322A (PSD-95) (setting [7]). Further, the Ki – broadly, the dissociation constant of the complex between target and ligand, obtained from inhibition or displacement – was 0.777 µM on PSG G322A G335A (PSD-95) (setting [2]); 9 µM on PSG F325A (PSD-95) (read-out: Ki (µM), PSG F325A); 0.753 µM on PSG G335A (PSD-95) (setting [3]); below 75 µM at PSG (PSD-95) (setting [4]); 2.43 µM at PSG (PSD-95) (setting [6]); 1.33 µM at PSG G322A (PSD-95) (setting [7]).

Consider `CC(=O)N[C@@H](Cc1ccc(O)cc1)C(=O)N[C@@H](Cc1c[nH]cn1)C(=O)N1CCC[C@H]1C(=O)N[C@@H](Cc1c[nH]cn1)C(=O)N1CCC[C@H]1C(=O)N[C@@H](Cc1c[nH]cn1)C(=O)N1CCC[C@H]1C(=O)N[C@@H](Cc1c[nH]cn1)C(=O)N[C@@H](CO)C(=O)N[C@@H](Cc1c[nH]cn1)C(=O)N[C@@H](CO)C(=O)N[C@H](C(=O)N[C@H](C(=O)N[C@@H](CCCNC(=N)N)C(=O)N[C@H](C(=O)O)C(C)C)[C@@H](C)O)[C@@H](C)O` [NLGN1], for which the concentration for half-maximal inhibition (IC50) on PSG G322A G335A (PSD-95) (setting [1]) was 22 µM; at PSG (PSD-95) (setting [5]) it was 118 µM; on PSG G322A (PSD-95) (setting [7]) it was 56 µM. Besides, the inhibition constant (Ki) was 7.42 µM at PSG G322A G335A (PSD-95) (setting [2]); 72 µM at PDZ3 (PSD-95) (setting [8]); below 75 µM at PDZ3 (PSD-95) (setting [9]); 9 µM at PSG G335A (PSD-95) (setting [3]); below 75 µM at PSG (PSD-95) (setting [4]); 61 µM at PSG (PSD-95) (setting [6]). On PSG G322A (PSD-95) (setting [7]), the Ki is 24 µM.

Take `CC(=O)N[C@@H](Cc1ccc(O)cc1)C(=O)N[C@@H](CC(N)=O)C(=O)N[C@@H](CO)C(=O)N[C@H](C(=O)N[C@@H](CC(N)=O)C(=O)N[C@@H](CC(C)C)C(=O)N1CCC[C@H]1C(=O)N[C@@H](Cc1c[nH]cn1)C(=O)NCC(=O)N[C@@H](Cc1c[nH]cn1)C(=O)N[C@@H](CO)C(=O)N[C@H](C(=O)N[C@H](C(=O)N[C@@H](CCCNC(=N)N)C(=O)N[C@H](C(=O)O)C(C)C)[C@@H](C)O)[C@@H](C)O)[C@@H](C)O` [NLGNX]: the IC50 on PSG G322A G335A (PSD-95) (setting [10]) was 43 µM; on PDZ3 (PSD-95), 62 µM; on PSG G335A (PSD-95) (setting [13]), 39 µM; on PSG (PSD-95) (setting [13]), 184 µM; at PSG G322A (PSD-95) (setting [13]), 72 µM. The inhibition constant (Ki) on PSG G322A G335A (PSD-95) (setting [11]) was 15 µM; at PDZ3 (PSD-95) (setting [12]) it was 40 µM; at PDZ3 (PSD-95) (setting [9]) it was below 75 µM; on PSG G335A (PSD-95) (setting [13]) it was 14 µM; on PSG (PSD-95) (setting [14]), 78 µM; on PSG G322A (PSD-95) (setting [13]), 31 µM.

Turning to `CC[C@H](C)[C@H](NC(=O)[C@H](CO)NC(=O)[C@@H]1CCCN1C(=O)[C@H](CCSC)NC(=O)[C@H](CCCCN)NC(=O)[C@H](CCCCN)NC(=O)[C@H](Cc1ccc(O)cc1)NC(=O)[C@@H](NC(=O)[C@H](CCCNC(=N)N)NC(=O)[C@H](CCCNC(=N)N)NC(=O)[C@H](Cc1ccc(O)cc1)NC(C)=O)C(C)C)C(=O)N[C@@H](CCC(=O)O)C(=O)N[C@@H](CO)C(=O)N[C@@H](CC(=O)O)C(=O)N[C@H](C(=O)O)C(C)C` [NMDE1], the IC50 at PSG G322A G335A (PSD-95) (setting [1]) was 156 µM; at PSG G335A (PSD-95) (setting [3]), 267 µM; on PSG (PSD-95) (setting [5]), 463 µM; on PSG G322A (PSD-95) (setting [7]), 153 µM. Besides, the inhibitory constant (Ki) on PSG G322A G335A (PSD-95) (setting [2]) was 54 µM; at PDZ3 (PSD-95) (setting [8]) it was 172 µM; on PSG G335A (PSD-95) (setting [3]), 95 µM; on PSG (PSD-95) (setting [6]), 243 µM; on PSG G322A (PSD-95) (setting [7]), 66 µM.

Turning to `CC[C@H](C)[C@H](NC(=O)[C@@H]1CCCN1C(=O)[C@H](Cc1ccc(O)cc1)NC(C)=O)C(=O)NCC(=O)NCC(=O)N[C@@H](CO)C(=O)N[C@@H](CC(C)C)C(=O)N[C@@H](CC(N)=O)C(=O)N[C@@H](CO)C(=O)N[C@H](C(=O)N[C@H](C(=O)N[C@@H](CC(=O)O)C(=O)N[C@@H](CO)C(=O)N[C@@H](C)C(=O)N[C@@H](CC(C)C)C(=O)O)[C@@H](C)O)[C@@H](C)O` [RGS14], the IC50 on PSG G322A G335A (PSD-95) (setting [10]) was 76 µM; at PDZ3 (PSD-95) it was 67 µM; at PSG G335A (PSD-95) (setting [13]) it was 233 µM; on PSG (PSD-95) (setting [13]), 427 µM; on PSG G322A (PSD-95) (setting [13]), 133 µM. Also, the Ki was 26 µM at PSG G322A G335A (PSD-95) (setting [11]); 27 µM at PDZ3 (PSD-95) (setting [12]); below 75 µM on PDZ3 (PSD-95) (setting [9]); 83 µM at PSG G335A (PSD-95) (setting [13]); 181 µM at PSG (PSD-95) (setting [14]); 57 µM at PSG G322A (PSD-95) (setting [13]).

With `CC[C@H](C)[C@H](NC(=O)[C@H](Cc1ccccc1)NC(=O)[C@H](CO)NC(=O)[C@H](CCCNC(=N)N)NC(=O)[C@H](CCCCN)NC(=O)[C@@H]1CCCN1C(=O)[C@H](CCCCN)NC(=O)[C@H](C)NC(=O)[C@H](C)NC(=O)[C@@H](NC(=O)[C@H](Cc1ccc(O)cc1)NC(C)=O)[C@@H](C)O)C(=O)N[C@@H](CCC(=O)O)C(=O)N[C@@H](CO)C(=O)N[C@@H](CC(N)=O)C(=O)N[C@H](C(=O)O)C(C)C` [TANC1], the 50% inhibitory concentration (IC50) stood at 12 µM on PSG G322A G335A (PSD-95) (setting [10]); 58 µM at PDZ3 (PSD-95); 24 µM at PSG G335A (PSD-95) (setting [13]); 67 µM on PSG (PSD-95) (setting [13]); 21 µM at PSG G322A (PSD-95) (setting [13]). Also, the Ki at PSG G322A G335A (PSD-95) (setting [11]) is 4 µM; on PDZ3 (PSD-95) (setting [12]), 23 µM; at PDZ3 (PSD-95) (setting [9]), below 75 µM; on PSG G335A (PSD-95) (setting [13]) it was 8.45 µM; at PSG (PSD-95) (setting [4]) it was below 75 µM; on PSG (PSD-95) (setting [14]), 28 µM. Besides, the Ki at PSG G322A (PSD-95) (setting [13]) is 9 µM.

Regarding Ac-YSSPAQSVTPVQTVV [MTMR2], the inhibition constant (Ki) at PSG G322A G335A (PSD-95) (FP displacement of 5 nM FITC-15 AA CRIPT by non-labeled acetylated peptide, room temperature, Ki from IC50, PSG G322A G335A) came to 95 µM; on PDZ3 (PSD-95) (Ki (µM), PDZ3, FP displacement of FITC-15 AA CRIPT probe by library peptide), 139 µM; at PSG G335A (PSD-95) (setting [15]), 99 µM; on PSG (PSD-95) (read-out: Ki (µM), PSG, FP displacement of FITC-15 AA CRIPT probe by library peptide), 115 µM. Besides, the half-maximal inhibitory concentration (IC50) on PDZ3 (PSD-95) came out at 333 µM; at PSG G335A (PSD-95) (setting [15]), 277 µM; on PSG (PSD-95) (setting [15]) it was 271 µM; at PSG G322A (PSD-95) (setting [15]), 295 µM.

The values are drawn from PMC9490041, “Determinants of affinity, specificity, and phase separation in a supramodule from Post-synaptic density protein 95” (iScience, 2022).
